The results in this text go back to PubChem BioAssay (NCI).

What all share (assay): NCI tumour cell line growth inhibition, 48 h
Test [1] deals with MDA-MB-435.
The subject of test [2] is IGROV1 ovarian.
Test [3] relates to SNB-75 CNS.
Test [4] deals with SF-268 CNS.
Test [5] relates to ACHN renal.
In test [6] the test system is NCI-H226 lung.
In test [7] the test system is UACC-257 melanoma.
The test system of test [8] is MCF7 breast.
Test [9] concerns NCI-H460 lung.
Test [10] deals with SK-MEL-2 melanoma.
For test [11], the system named is SK-MEL-28 melanoma.
Test [12] has as its system PC-3 prostate.
Test [13] has as its system COLO 205 colon.
For test [14], the system named is SR leukemia.
Test [15] deals with OVCAR-3 ovarian.
For test [16], the system named is SW-620 colon.
In test [17] the test system is UO-31 renal.
The subject of test [18] is CAKI-1 renal.

Structures are written as SMILES. Where “and” joins values, the source holds several entries; their conditions need not be identical. Equal entries are not always repeated.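 Protocol summary: plate cells (96-well), add compound at 5 concentrations, incubate 48 h, interpolate endpoints linearly. GI50 is the concentration that inhibits growth by half. TGI: concentration producing complete growth inhibition.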

For `CC(C)(C)OC(=O)NC(Cc1cnc[nH]1)C(=O)N1CCCC1C(N)=O` (centres undefined), the TGI in test [1], in test [2], in test [3], in test [4], in [5] and in test [6] was more than 100 µM throughout. Further, the TGI in test [7], in test [8], in test [9], in test [10], in test [11] and in test [12] was more than 100 µM throughout. In addition, the TGI in test [13], in [14], in test [15], in [16], in test [17] and in test [18] was more than 100 µM each time.

For the compound `O=C1c2ccccc2C(=O)N1CCCCCCNOCCCN1C(=O)c2ccccc2C1=O`, the TGI in [1] was 74.7 µM; in test [2] it was more than 100 µM; in test [3], more than 100 µM; in test [4], more than 100 µM; in test [5], more than 100 µM; in test [6] it was more than 100 µM. Moreover, the TGI in [7] is 86 µM; in test [8], 88.4 µM; in test [9] it was more than 100 µM; in [10], 47.8 µM; in test [11], more than 100 µM; in test [12], more than 100 µM. The TGI in test [13], in test [14], in test [15], in test [16], in test [17] and in test [18] was more than 100 µM throughout.

`C[C@@H](NC(=O)OC1C=CC2(CC1)C(=O)N(C)c1ccccc12)c1cccc2ccccc12` (some centres undefined): the TGI in [1], in test [2], in test [3], in [4], in test [5] and in test [6] was more than 25 µM throughout. Further, the TGI in test [7], in [8], in test [9], in [10], in test [11] and in test [12] was more than 25 µM throughout. Also, the TGI in test [13], in test [14], in test [15], in test [16], in [17] and in test [18] was more than 25 µM in each case.

`CCCN(CCCCN1C(=O)c2ccccc2C1=O)CC1COc2ccccc2O1` (centres undefined): the TGI in test [1], in test [2], in test [3], in [4], in [5] and in [6] was more than 100 µM throughout. The TGI in test [7], in test [8], in test [9], in [10], in test [11] and in test [12] was more than 100 µM in each case. Moreover, the TGI in test [13] is more than 100 µM; in test [14] it was 77.6 µM; in [15] it was more than 100 µM; in test [16] it was more than 100 µM; in test [17], more than 100 µM; in [18] it was more than 100 µM.

For `c1ccc2c3c([nH]c2c1)C1c2[nH]c4ccccc4c2CCN1CC3`, the TGI in [1] stood at 33.5 µM; in test [2], 31.1 µM; in test [3] it was 38.8 µM; in test [4], 30.3 µM; in test [5] it was 27.1 µM; in test [6], 37.6 µM. Moreover, the TGI in test [7] worked out at 28.6 µM; in test [8], 30.8 µM; in [9], 24.3 µM; in test [10], 64.2 µM; in test [11], 31.7 µM; in test [12], 27.1 µM. Besides, the TGI in test [13] was 35.2 µM; in test [14], more than 100 µM; in test [15] it was 25.1 µM; in test [16], 45.5 µM; in test [17], 18.5 µM; in test [18], 34.2 µM.

For `COP1(=O)NCc2ncccc2O1` (centres undefined), the TGI in test [1], in test [2], in test [3], in [5], in test [6] and in [7] was more than 100 µM in each case. Further, the TGI in test [8], in test [9], in test [10], in test [11], in test [12] and in [13] was more than 100 µM in each case. For the same compound, the TGI in [14], in test [15], in test [16], in test [17] and in test [18] was more than 100 µM each time.

Take `CCN(CC)Cc1nc(C2CCC([N+](=O)[O-])O2)no1` (centres undefined): the TGI is 35.7 µM in test [1]; more than 100 µM in [2]; 96.6 µM in test [3]; 79.6 µM in test [4]; more than 100 µM in [5]; more than 100 µM in test [6]. Also, the TGI is 40.8 µM in test [7]; 32.2 µM in test [8]; 44.5 µM in [9]; 72.6 µM in test [10]; 53.8 µM in [11]; more than 100 µM in [12]. For the same compound, the TGI in test [13] is 30.3 µM; in test [14], more than 100 µM; in test [15], 56.7 µM; in test [16], 35.9 µM; in test [17] it was more than 100 µM; in test [18], more than 100 µM.

As to `CN(C)c1ccc(/C=C(\NC(=O)c2ccccc2)C(=O)Nc2ccccc2C(=O)O)cc1`, the TGI in [1], in test [2], in [3], in test [4], in [5] and in test [6] was more than 100 µM in each case. For the same compound, the TGI in [7], in test [8], in test [9], in [10], in test [11] and in [12] was more than 100 µM throughout. The TGI in test [13], in [14], in test [15], in test [16], in test [17] and in test [18] was more than 100 µM each time.

Consider `Cc1ccc(S(=O)(=O)Oc2ccc(OS(=O)(=O)c3ccc(C)cc3)c3c2C(=O)c2ccccc2C3=O)cc1`, for which the TGI in test [1] was more than 100 µM; in test [2] it was more than 100 µM; in test [3] it was 64.1 µM; in [4], more than 100 µM; in test [5] it was more than 100 µM; in test [6], more than 100 µM. Moreover, the TGI in [7], in test [8], in test [9], in test [10], in test [11] and in test [12] was more than 100 µM each time. For the same compound, the TGI in test [13], in test [14], in test [15], in [16], in [17] and in test [18] was more than 100 µM in each case.

As to `C=C1CC(Cn2cc(C)c(=O)[nH]c2=O)(c2ccc(-c3ccccc3)cc2)OC1=O` (centres undefined), the TGI in [1] amounted to 3.74 µM; in test [2], 3.74 µM; in [3] it was 21.8 µM; in test [4] it was 5.62 µM; in test [5], 6.65 µM; in [6] it was 35.5 µM. Moreover, the TGI in [7] was 5.75 µM; in test [8], 5.87 µM; in test [9], 20.8 µM; in [10] it was 4.19 µM; in test [11], 3.75 µM; in test [12], 5.31 µM. Further, the TGI in test [13] stood at 2.89 µM; in test [14] it was 12.8 µM; in test [15], 1.66 µM; in test [16] it was 1.91 µM; in test [17] it was 11.5 µM; in test [18], 4.94 µM.

Regarding `CCOC(=O)c1cccc([N+](=O)[O-])c1N`, the TGI in test [1], in test [2], in [3], in test [5], in [6] and in test [7] was more than 100 µM each time. For the same compound, the TGI in [8], in test [9], in test [10], in [11], in test [12] and in test [13] was more than 100 µM each time. Moreover, the TGI in [14], in [15], in [16], in test [17] and in test [18] was more than 100 µM each time.

With `O=C(Nc1ccccc1C(=O)O)/C(=C/c1ccccc1)NC(=O)c1ccccc1`, the TGI in [1], in test [2], in test [3], in test [4], in test [5] and in test [6] was more than 100 µM throughout. The TGI in [7], in test [8], in test [9], in test [10], in test [11] and in [12] was more than 100 µM each time. In addition, the TGI in test [13], in test [14], in [15], in [16], in test [17] and in test [18] was more than 100 µM throughout.

Regarding `O=c1cc(-c2ccccc2)oc2ccc(Oc3nnnn3-c3ccccc3)cc12`, the TGI was more than 41.9 µM in test [1]; more than 100 µM in [2]; more than 92.5 µM in test [3]; 25.3 µM in test [4]; more than 100 µM in test [5]; more than 100 µM in test [6]. The TGI in [7] was more than 100 µM; in test [8] it was more than 100 µM; in test [9] it was more than 100 µM; in [10], more than 84.5 µM; in [11], more than 100 µM; in test [12], more than 100 µM. The TGI was more than 100 µM in test [13]; more than 100 µM in test [14]; more than 100 µM in [15]; more than 100 µM in [16]; more than 100 µM in test [17]; more than 86.5 µM in [18].

For `CCCCCC(=O)OCC1(CO)C/C(=C\CC(C(C)C)C(C)C)C(=O)O1` (centres undefined), the TGI in [1], in [2], in [3], in test [4], in test [5] and in test [6] was more than 100 µM throughout. Further, the TGI in test [7], in test [8], in test [9], in [10], in [11] and in [12] was more than 100 µM in each case. For the same compound, the TGI is 53.5 µM in test [13]; more than 100 µM in test [14]; more than 100 µM in test [15]; 64.4 µM in [16]; more than 100 µM in [17]; more than 100 µM in [18].

Turning to `COc1ccc(-n2c(C)nc3ccc(NC4OCC(O)C(O)C4O)cc3c2=O)cc1` (centres undefined), the TGI in test [1], in test [2], in test [3], in test [4], in test [5] and in [6] was more than 100 µM in each case. In addition, the TGI in [7] was more than 100 µM; in test [8] it was more than 100 µM; in [9], more than 100 µM; in [10], more than 100 µM; in [11], > 100 µM and 57 µM; in [12] it was more than 100 µM. Besides, the TGI in test [13] is more than 100 µM; in [14], 68.4 µM and 60.4 µM; in test [15] it was more than 100 µM; in [16], > 100 µM and 72.6 µM; in test [17], more than 100 µM; in test [18] it was more than 100 µM. In [18], the GI50 was > 100 µM and 39.5 µM.
